Where a name gives a salt, the structure may show the parent alone. Read-outs that look alike come from different tables or passages of the source.

Consider three compounds from patent US9023860B2, “Pro-drugs for controlled release of biologically active compounds” (Signature Therapeutics, Inc., priority 2007, dated 2015).

The series is described as follows: In Vitro Cyclization Assay (disappearance of test compound in buffer, half-life of degradation). Format: physicochemical. The note with it: 20° C., approximately 2.2 mM, read-out: Ave (half-life of degradation) (converted). The protocol:
1. In Vitro Cyclization Assay
This assay measures the ability of a test compound of the present invention to cyclize in vitro. Also determined is the time required to effect such cyclization.
Test compounds are dissolved (approximately 2.2 mM) in 50 mM phosphate/citrate buffers at a variety of pHs, including pH 7.4 and pH 8.5. The disappearance of the test compounds is observed over time by incubating the solutions at 20° C. and periodically quantifying the concentration of the remaining compound. Since the rate of disappearance follows first order kinetics, the half-life of degradation is calculated from the slope of the regression of natural logarithm transformed data on time. For pH 10 half-life results, CPBG is used: The half-life assay is conducted in phosphate/citrate buffer to test compound stability at pH 6, pH 7.4 and pH 8.5, but citrate/phosphate/glycine buffer is used when compounds were tested at pH 10.

Setting [1] is: nominal pH 6, 50 mM phosphate/citrate buffer.
[2] abbreviates: nominal pH 7.4, 50 mM phosphate/citrate buffer.
Where [3] appears, read: nominal pH 8.5, 50 mM phosphate/citrate buffer.
Setting [4] is: nominal pH 10, citrate/phosphate/glycine buffer.

In general, half-life refers to the time needed for the level to fall by half in the phase considered. As to `CN(CC(F)(F)CN)C(=O)Oc1ccc2c3c1OC1C(=O)CCC4C(C2)N(C)CCC314` (stereo not drawn) [Example 1, Hydromorphone 3-(N-methyl-N-(3-amino-2,2-difluoro)propyl)carbamate Hydrochloride], the half-life at 2.2 mM reads like this: under setting [1], 99.1 h; under setting [2], 9.43 h; under setting [3], 6.13 h; under setting [4], 8.04 h.

Take `CN(CCCN)C(=O)Oc1ccc2c3c1O[C@H]1C(=O)CC[C@H]4[C@@H](C2)N(C)CC[C@]314` [Comparison, Hydromorphone 3-(N-methyl-N-(3-amino)propyl)carbamate Hydrochloride, reference compound]: the half-life at 2.2 mM by setting is: under setting [1], 3190 h; under setting [2], 224 h; under setting [3], 74 h; under setting [4], 1.33 h.

On to `CN(CC(F)CN)C(=O)Oc1ccc2c3c1O[C@H]1C(=O)CC[C@H]4[C@@H](C2)N(C)CC[C@]314` (stereo partly drawn) [Example 2, Hydromorphone 3-(N-methyl-N-(3-amino-2-fluoro)propyl)carbamate Hydrochloride], for which the half-life at 2.2 mM is 334 h under setting [1], 18.1 h under setting [2], 5.18 h under setting [3] and 1.68 h under setting [4].
